Here are results for 65 compounds from patent publication US20110053897A1 (IRM LLC, priority 2009, published 2011).

One assay has as its target T1, Syk kinase (Homo sapiens, UniProt P43405).
T1 construct: purchased
The assay is described as follows: Syk kinase inhibition, Caliper LabChip off-chip mobility-shift kinase assay. It is filed as biochemical. The conditions noted are these: Caliper LabChip assay; read-out: Syk Enzyme IC50. The method, boiled down:
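Purified Syk pre-incubated 15 min with compound in 100 mM HEPES pH 7.5, 1 mM DTT, 10 mM MgCl2 or MnCl2, 0.002% Brij-35, then 1.5 μM fluorescein peptide and ATP at apparent KM added; 1–1.5 h at room temperature, 4% DMSO, EDTA stop. Microfluidic mobility-shift product/substrate conversion gave % inhibition; IC50 from 12-point series (10–0.00003 μM) by 4-parameter fit.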
For orientation: IC50 means the concentration needed to halve the response being measured. Regarding `CCn1ccc2cc(Nc3cc(C)ccn3)nc(N[C@H](CO)C(C)C)c2c1=O` [compound 1041], the IC50 is 158 nM. `CC(C)(C)Nc1nc(Nc2cnccn2)cc2ccn(CCS(C)(=O)=O)c(=O)c12` [compound 738, 8-(tert-butylamino)-2-(2-(methylsulfonyl)ethyl)-6-(pyrazin-2-ylamino)-2,7-naphthyridin-1(2H)-one]: the IC50 amounted to 9 nM. For the compound `O=c1[nH]ccc2cc(Nc3cnccn3)nc(N[C@H]3CC[C@H](O)CC3)c12` [compound 976], the IC50 came out at 5 nM.

For `CC(C)(C)Nc1nc(Nc2cc(OC3CCNCC3)ncn2)cc2ccn(CCO)c(=O)c12` [compound 645, 8-(tert-butylamino)-2-(2-hydroxyethyl)-6-(6-(piperidin-4-yloxy)pyrimidin-4-ylamino)-2,7-naphthyridin-1(2H)-one], the IC50 turned out to be 5 nM. On to `CC(C)(C)Nc1nc(Nc2cc(C3(O)COC3)ccn2)cc2ccn(CCO)c(=O)c12` [Compound No. 609, 8-(tert-butylamino)-2-(2-hydroxyethyl)-6-(4-(3-hydroxyoxetan-3-yl)pyridin-2-ylamino)-2,7-naphthyridin-1(2H)-one], for which the half-inhibitory concentration (IC50) came out at 12 nM. Same read-out and setting: with `CC(C)(C)Nc1nc(Nc2cc(C(C)(C)C(=O)O)ccn2)cc2ccn(CCO)c(=O)c12` [compound 861] the figure was 169 nM.

For the compound `CCn1ccc2cc(Nc3cc(C)ccn3)nc(N[C@@H]3CC[C@H](CO)C3)c2c1=O` [compound 794], the half-inhibitory concentration (IC50) was 94 nM. With `CC(C)(C)Nc1nc(Nc2c[n+]([O-])ccn2)cc2ccn(C[C@H](O)CO)c(=O)c12` [compound 674], the IC50 worked out at 7 nM.

For the compound `Nc1ncc(-c2cc3ccn(CCO)c(=O)c3c(N3CCCC3)n2)cn1` [compound 909], the IC50 was found to be 546 nM. Same read-out and setting: to `COCC(O)Cn1ccc2cc(Nc3cnccn3)nc(NC(C)(C)C)c2c1=O` (centres unmarked) [compound 677] belongs 12 nM; to `CO/N=C(\C)c1ccnc(Nc2cc3ccn(CCO)c(=O)c3c(NC(C)(C)C)n2)c1` [compound 695], 431 nM. For `NC(=O)Cn1ccc2cc(-c3cnc(N)nc3)nc(NC3CCCC3)c2c1=O` [compound 757], the 50% inhibitory concentration (IC50) was 59 nM. Same read-out and setting: with `O=C(Cn1ccc2cc(Nc3cnccn3)nc(N[C@H]3CC[C@@H](O)CC3)c2c1=O)N1CCOCC1` [compound 1007] the figure was 132 nM; with `CC(CO)c1ccnc(Nc2cc3ccn(CCO)c(=O)c3c(NC(C)(C)C)n2)c1` (centres unmarked) [compound 864], 2 nM; with `CC(C)(C)Nc1nc(Nc2cc(-c3ncccn3)ccn2)cc2ccn(CCO)c(=O)c12` [compound 878], 9 nM. Consider `Cc1ccnc(Nc2cc3ccn(CCO)c(=O)c3c(NCC(C)(C)C)n2)c1` [compound 814], for which the IC50 was 390 nM. On to `CCn1ccc2cc(Nc3cnccn3)nc(NC(C)(CO)CO)c2c1=O` [compound 809], for which the IC50 was 153 nM. On to `CCn1ccc2cc(Nc3cc(C)ccn3)nc(NC3CCCC(O)C3)c2c1=O` (centres unmarked) [compound 972], for which the IC50 stood at 59 nM. Same read-out and setting: with `CC(C(N)=O)n1ccc2cc(Nc3cnccn3)nc(NC(C)(C)C)c2c1=O` (centres unmarked) [compound 660] the figure was 13 nM; with `Cc1ccnc(Nc2cc3ccn(CCO)c(=O)c3c(NCC(F)F)n2)c1` [compound 815], 117 nM. Same read-out and setting: to `Cc1ccnc(Nc2cc3ccn(CCO)c(=O)c3c(N)n2)c1` [compound 813] belongs 1050 nM; to `CC(C)(C)Nc1nc(Nc2cc(C3CCCCO3)ncn2)cc2ccn(CCO)c(=O)c12` (centres unmarked) [compound 626], 756 nM; to `CCn1ccc2cc(-c3cnc(N)nc3)nc(NC3(C)CCC3)c2c1=O` [compound 906], 29 nM. Consider `Cc1ccnc(Nc2cc3ccn(CCO)c(=O)c3c(Nc3ccc(C(=O)N4CCOCC4)c(C)c3)n2)c1` [compound 650], for which the IC50 is 186 nM. As for `Cc1c2ccc(Nc3nc(Nc4cnccn4)cc4ccn(CCO)c(=O)c34)cc2nn1C` [compound 656], the half-maximal inhibitory concentration (IC50) is 168 nM. Take `CC(C)(C)Nc1nc(Nc2cc(C(C)(C)O)ncn2)cc2ccn(CC(O)CO)c(=O)c12` (centres unmarked) [compound 730]: the 50% inhibitory concentration (IC50) was found to be 42 nM.

The same assay, now with this note: read-out: Syk Enzyme IC50.
As to `COc1cncc(-c2cc3cc[nH]c(=O)c3c(Nc3ccc(C4CCN(C(=O)N(C)C)CC4)c(C)c3)n2)n1` [compound 177], the IC50 was 496 nM. On to `CCn1ccc2cc(Nc3cc(C)ccn3)nc(N[C@H]3CC[C@@H](O)C3)c2c1=O` [compound 424], for which the IC50 worked out at 47 nM. As to `Cn1ccc2cc(Nc3cnccn3)nc(NC(C)(C)CO)c2c1=O` [compound 472], the IC50 amounted to 155 nM. The same measure, in the same setting: to `COc1cncc(-c2cc3cc[nH]c(=O)c3c(Nc3ccc(C4CCN(C5CC5)CC4)c(C)c3)n2)n1` [compound 210] belongs 88 nM; to `Cc1ncc(-c2cc3cc[nH]c(=O)c3c(Nc3ccc([C@H]4CC[C@@H](N5CCOCC5)CC4)cc3)n2)cn1` [compound 11], 652 nM. Regarding `COc1cncc(-c2cc3cc[nH]c(=O)c3c(Nc3ccc(C4=CCNCC4)c(C)c3)n2)n1` [compound 13], the IC50 was 38 nM. The same measure, in the same setting: to `CCN1CCN(CCc2ccc(Nc3nc(-c4cnc(OC)nc4)cc4c(F)c[nH]c(=O)c34)cc2)CC1` [compound 439] belongs 474 nM; to `Cc1ccnc(Nc2cc3cc[nH]c(=O)c3c(NCC(C)C)n2)c1` [compound 282], 500 nM. Still for that read-out and setting: with `O=c1[nH]ccc2cc(CCCO)nc(Nc3ccc(N4CCOCC4)cc3)c12` [compound 247] the figure was 45 nM.

For the compound `CC(C)(C)N1CC=C(c2ccc(Nc3nc(-c4cncnc4)cc4cc[nH]c(=O)c34)cc2)CC1` [compound 94], the IC50 was 13 nM.

For the compound `O=c1[nH]ccc2cc(Nc3ccccn3)nc(Nc3ccc(N4CCOCC4)cc3)c12` [compound 509], the IC50 is 143 nM.

As to `Cc1cc(Nc2nc(-c3cnc(N)c(C)c3)cc3cc[nH]c(=O)c23)ccc1C1CCN(CCC#N)CC1` [compound 69], the IC50 worked out at 28 nM. As to `Cc1ccnc(Nc2cc3cc[nH]c(=O)c3c(Nc3ccc(N4CCO[C@H](C)C4)c(C)c3)n2)c1` [compound 584], the IC50 amounted to 2680 nM. The same measure, in the same setting: with `O=c1[nH]ccc2cc(Nc3cnccn3)nc(Nc3ccc(N4CCOCC4)cc3)c12` [compound 461] the figure was 100 nM; with `COc1cncc(-c2cc3cc[nH]c(=O)c3c(Nc3ccc(C4CCN(CC(=O)N(C)OC)CC4)c(C)c3)n2)n1` [compound 176], 41 nM; with `COc1cncc(-c2cc3cc[nH]c(=O)c3c(Nc3ccc(C4CCN(CC5CC5)CC4)c(C)c3)n2)n1` [compound 81], 4 nM.

As for `Cc1ccnc(Nc2cc3ccn(C)c(=O)c3c(Nc3cccc(C(N)=O)c3)n2)c1` [compound 507], the IC50 is 136 nM. Same read-out and setting: with `Cc1ccnc(Nc2cc3ccn(C)c(=O)c3c(Nc3cc(C)ccn3)n2)c1` [compound 569] the figure was 701 nM; with `Cc1ccnc(Nc2cc3cc[nH]c(=O)c3c(NC3CNC3)n2)c1` [compound 300], 1540 nM.

As for `Cc1ccnc(Nc2cc3ccn(C)c(=O)c3c(Nc3ccc(C4CCNCC4)cc3)n2)c1` [compound 308], the concentration for half-maximal inhibition (IC50) is 7 nM. In the case of `COc1cncc(-c2cc3cc[nH]c(=O)c3c(Nc3ccc(C4CN(C(C)=O)C4)cc3)n2)n1` [compound 149], the half-maximal inhibitory concentration (IC50) was 24 nM. Still for that read-out and setting: with `CCn1ccc2cc(Nc3cc(C)ccn3)nc(NC[C@@H]3CC[C@](C)(O)C3)c2c1=O` [compound 414] the figure was 287 nM; with `CCn1ccc2cc(Nc3cc(C)c(F)cn3)nc(N[C@H]3CC[C@@H](O)CC3)c2c1=O` [compound 393], 90 nM.

As to `O=c1[nH]ccc2cc(Nc3ccc([N+](=O)[O-])cn3)nc(Nc3ccc(N4CCOCC4)cc3)c12` [compound 565], the half-maximal inhibitory concentration (IC50) was 710 nM.

For `CNC(=O)C(C)N1CCC(c2ccc(Nc3nc(-c4cncc(OC)n4)cc4cc[nH]c(=O)c34)cc2C)CC1` (centres unmarked) [compound 173], the IC50 was 11 nM. As for `COc1cncc(-c2cc3cc[nH]c(=O)c3c(Nc3ccc(C4CCN(C(C)C(N)=O)CC4)c(C)c3)n2)n1` (centres unmarked) [compound 136], the IC50 turned out to be 46 nM.

On to `CCn1ccc2cc(Nc3cnccn3)nc(N[C@H]3CCC[C@H]3O)c2c1=O` (racemic) [compound 354], for which the IC50 amounted to 18 nM. The same measure, in the same setting: with `COc1cncc(-c2cc3cc[nH]c(=O)c3c(Nc3ccc(C4CCN(C(C)C(=O)N(C)C)CC4)c(C)c3)n2)n1` (centres unmarked) [compound 170] the figure was 6 nM; with `Cc1cc(Nc2nc(-c3ccc(N(C)C)nc3)cc3cc[nH]c(=O)c23)ccc1C1CCN(C2CC2)CC1` [compound 218], 350 nM. On the same count and under the same terms, with `O=c1[nH]ccc2cc(C3CCSCC3)nc(Nc3ccc(N4CCOCC4)cc3)c12` [compound 15] the figure was 702 nM; with `O=c1c2c(N[C@H]3CC[C@@H](O)CC3)nc(Nc3cc(Cl)ccn3)cc2ccn1CCO` [compound 384], 17 nM; with `Cn1ccc2cc(-c3cnc(N)nc3)nc(NCCN3CCOCC3)c2c1=O` [compound 36], 428 nM. On the same count and under the same terms, with `[2H]C([2H])([2H])n1ccc2cc(Nc3cc(C)c(Cl)cn3)nc(NC3CC3)c2c1=O` [compound 548] the figure was 468 nM. As for `CCn1ccc2cc(Nc3ncccn3)nc(NC[C@H]3CC[C@H](O)C3)c2c1=O` [compound 411], the IC50 amounted to 71 nM. Still for that read-out and setting: with `CN1CCCN(CCc2ccc(Nc3nc(-c4cncnc4)cc4cc[nH]c(=O)c34)cc2)CC1` [compound 435] the figure was 86 nM; with `COc1cncc(-c2cc3cc[nH]c(=O)c3c(Nc3ccc(C4CN(CCS(C)(=O)=O)C4)cc3)n2)n1` [compound 148], 22 nM. On to `COc1ccc(-c2cc3cc[nH]c(=O)c3c(Nc3ccc(C4CCN(C5CC5)CC4)c(C)c3)n2)cc1OC` [compound 213], for which the IC50 is 990 nM. For the compound `Cc1ccc(-c2cc3cc[nH]c(=O)c3c(Nc3ccc(CCN4CCCN(C)CC4)cc3)n2)cn1` [compound 437], the 50% inhibitory concentration (IC50) amounted to 102 nM.

For the compound `O=c1[nH]ccc2cc(C3CCOCC3)nc(Nc3ccc(N4CCOCC4)cc3)c12` [compound 87], the IC50 was 58 nM.
